Here are results for 1 molecule from publication PMC11311998, “AR71, Histamine H3 Receptor Ligand—In Vitro and In Vivo Evaluation (Anti-Inflammatory Activity, Metabolic Stability, Toxicity, and Analgesic Action)” (International Journal of Molecular Sciences, 2024).

Broadly, the IC50 is the concentration that inhibits the measured activity by half. One may read the Ki as the equilibrium dissociation constant of an inhibitor or competing ligand from its target.

One test concerns the target T1, hH3R (Homo sapiens, UniProt Q9Y5N1).
T1 construct: expressed in transfected cells; host or cells: HEK 293 cells stably expressing hH3R, provided by Dr Thierry Calmels, Bioprojet-Biotech (France)
The experiment in a line: cAMP accumulation assay in HEK 293 cells stably expressing the hH3R. In kind it is cell-based. As to the method:
The intrinsic activity of AR71 was evaluated in a 3′,5′-cyclic adenosine monophosphate (cAMP) accumulation assay in human embryonic kidney (HEK) 293 cells, stably expressing the hH3R [42].
The intrinsic activity of AR71 was evaluated in a 3′,5′-cyclic adenosine monophosphate (cAMP) accumulation assay in human embryonic kidney (HEK) 293 cells, stably expressing the hH3R [42], using the LANCE Ultra cAMP kit (Perkin Elmer, Waltham, MA, USA). The applied method was intended to measure the levels of cAMP generated because of changes in adenylyl cyclase activity mediated by GPCRs. The assay is based on the competition between the europium (Eu) chelate-labelled cAMP tracer and sample cAMP for binding sites on cAMP-specific monoclonal antibodies labelled with the ULight dye. The effect of AR71 (concentrations: 10^−10–10^−5 M) on reversing the inhibition of cAMP production by (R)-(-)-α-methyl histamine (30 nM) in forskolin-stimulated (10 μM) cells was evaluated. The experiment was conducted according to the principles described earlier. Experiments were performed three times in triplicates, and IC50 values were determined using GraphPad Prism 8.4.3 software.
Figure S1. Forskolin-stimulated cAMP accumulation studies in HEK 293 cells expressing the human histamine H3
receptor, co-treated with (R)(-)-α-Methylhistamine […] and AR71 (30 nM). […]

For a further test, the system named is SH-SY5Y cells. The experiment in a line: cell number / growth, image cytometry. In kind it is cell-based. The settings on record: Homo sapiens. On the procedure: To evaluate the growth dynamics of SH-SY5Y cells in the presence of AR71, neuroblastoma cells were treated with increasing concentrations (0.39–25 µM) of the compound tested for 24 or 72 h. Using image cytometry, we calculated the DNA content index as a 2N/4N DNA ratio to analyse the cell cycle distribution after 24 and 72 h of incubation with AR71.
SH-SY5Y cells were initially seeded in 96-well plates at a density of 5000 cells per well in 120 μL of medium. After 24 h, the cells were exposed to different concentrations of AR71 for either 24 or 72 h. […] Subsequently, images of 16 fields per well were captured using the ArrayScan VTI HCS Reader from Thermo Fisher Scientific, Inc. (Thermo Fisher Scientific, Waltham, MA, USA), which was equipped with a 5× objective. The cell number was calculated as the sum of the Hoechst-33342-stained cell nuclei using Cell Cycle Bioapplication V3 software and expressed as a per cent of control. […] In the next step, a series of detailed images were acquired using the ArrayScan VTI HCS Reader equipped with a 10× objective to collect at least 500 nuclei/cells per replicate. The DNA cell content of single cells was analysed based on Hoechst-33342 fluorescence intensity of their nuclei using Cell Cycle Bioapplication V3 software and presented as the DNA 2N/4N ratio. […]

In the next test the target is hH1R. The arrangement: method as in PMID 36370200. The settings on record: cited from earlier work.

Each structure is given as a SMILES string. Where “and” joins values, the source holds several entries; their conditions need not be identical. Equal values may be shown once.

T1 sequence (Q9Y5N1 whole entry): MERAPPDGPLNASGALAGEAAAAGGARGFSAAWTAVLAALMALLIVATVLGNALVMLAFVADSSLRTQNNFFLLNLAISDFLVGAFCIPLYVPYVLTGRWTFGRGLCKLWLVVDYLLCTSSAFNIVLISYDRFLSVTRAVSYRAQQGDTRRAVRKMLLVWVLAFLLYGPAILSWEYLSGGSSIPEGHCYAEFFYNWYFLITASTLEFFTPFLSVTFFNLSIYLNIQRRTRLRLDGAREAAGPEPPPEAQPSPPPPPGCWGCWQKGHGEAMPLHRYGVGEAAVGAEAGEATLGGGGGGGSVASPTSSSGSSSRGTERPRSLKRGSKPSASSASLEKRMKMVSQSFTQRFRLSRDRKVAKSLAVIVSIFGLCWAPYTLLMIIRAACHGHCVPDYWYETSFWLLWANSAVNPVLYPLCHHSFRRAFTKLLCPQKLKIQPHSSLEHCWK

As for `COc1cc(/C=C/C(=O)c2ccc(OCCCN3CCCCC3)cc2)cc(OC)c1OC` [AR71, (E)-3-(3,4,5-trimethoxyphenyl)-1-(4-(3-(piperidin-1-yl)propoxy)phenyl)prop-2-en-1-one], the “intrinsic activity profile at H3R” value on hH3R (counteracts inhibition of cAMP production by (R)-(-)-α-methyl histamine in forskolin-stimulated cells) is listed as “H3R antagonist/inverse agonist”. Besides, the results for the half-inhibitory concentration (IC50) on hH3R (reversal of inhibition of cAMP production by (R)-(-)-α-methyl histamine (30 nM) in forskolin-stimulated (10 μM) cells), in the test with SH-SY5Y cells (24 h incubation) and with SH-SY5Y cells (72 h incubation) were 0.0835 ± 0.0119 µM, 8.46 µM and 3.19 µM, respectively. Besides, at hH1R, the inhibitory constant (Ki) was 2.7 µM and > 2.5 µM.
